Test results as given in paper PMC9842534 (European Journal of Medicinal Chemistry, 2023).
Where a SMILES comes first, the peptide text is derived from it. Bridges are numbered along the chain shown (N, C = ends). [ ]: non-standard residue; d: D form. S5 = C=CCCC[C@](C)(N)C(=O)O

Target: SARS-CoV-2 Spike RBD-ACE2 interaction (Severe acute respiratory syndrome coronavirus 2, UniProt P0DTC2)
Assay type: binding, SARS-CoV-2 / human

**Q.** How did the “inhibition of the spike RBD-ACE2 interaction (in words)” value turn out when CC(C)C[C@@H]1NC(=O)[C@H](CC(=O)O)NC(=O)[C@H](CCC(=O)O)NC(=O)[C@@](C)(NC(=O)[C@H](CCC(=O)O)NC(=O)[C@@H](N)Cc2c[nH]cn2)CCC/C=C\CCC[C@@](C)(C(=O)N[C@@H](Cc2ccc(O)cc2)C(=O)N[C@@H](CCC(N)=O)C(N)=O)NC1=O [Compound 6] (H-HE[S5]EDL[S5]YQ-NH2; staple (Z) 3-7; N-terminus and C-terminus assumed) was run?
**A.** significant inhibitory activity
